Source: article PMC9781958, “Next-Generation Heterocyclic Electrophiles as Small-Molecule Covalent MurA Inhibitors” (Pharmaceuticals, 2022)
Like-named read-outs stand apart in the source and are kept apart here.

What was measured:
[1] = molecular target: T1, E. coli MurA (UDP-N-acetylglucosamine 1-carboxyvinyltransferase, EC:2.5.1.7) (Escherichia coli, UniProt P0A749); test: MurA inhibitory assay (colorimetric malachite green method); format: biochemical; set-up: inferred from IMAC purification with imidazole elution; made in house; host or cells: Escherichia coli NiCo21(DE3); settings: for IC50 [μM] MurA: Figure 1, methylated library, 30 min preincubation; for remaining activity at 100 µM: 0.5 h, read-out: RA% @ 100 μM MurA 30 min preincubation
Procedure: Expression and purification of E. coli MurA (UDP-N-acetylglucosamine 1-carboxyvinyltransferase, EC:2.5.1.7) was performed according to the known procedure. Briefly, the MurA plasmid was used to transform chemically competent Escherichia coli NiCo21(DE3) (New England Biolabs, Ipswich, MA, USA). The transformant was cultured at 37 °C and 250 rpm in LB broth. Expression was induced by addition of 1 mM IPTG and cultured for an additional 3 h. Cells were harvested by centrifugation (3000× g for 10 min at 4 °C), and cell pellets were stored at −80 °C until purification. Cell pellets were resuspended in buffer 50 mM Tris (pH 8), 150 mM NaCl, and 10 % glycerol and lysed on ice by sonication. Cell debris was removed by centrifugation for 30 min (16,000× g, 4 °C, repeated twice). The lysate was loaded onto a HiTrap 1 mL IMAC HP column (Cytiva, Marlborough, MA, USA). The column was washed with buffer containing 50 mM imidazole with 20 column volumes, and the protein was eluted with buffer containing 250 mM imidazole. The eluted MurA was exchanged into proprietary buffer (50 mM Tris (pH 8), 150 mM NaCl, 10 % glycerol).
The inhibition of the MurA enzyme was monitored using the colorimetric malachite green method in which orthophosphate generated during the reaction is detected. The assay was performed in 96-well microplates with a final volume of 50 μL. The MurA enzyme was preincubated with the substrate UNAG (UDP-N-acetylglucosamine, Sigma, St. Louis, MO, USA) and compound for 30 min at 37 °C. […] After incubation for 15 min at 37 °C, the enzyme reaction was ended by adding Biomol® reagent (100 µL), and the absorbance was measured at 650 nm after 5 min using a microplate reader (Synergy H4, BioTek Instruments, Inc., Winooski, VT, USA). All of the experiments were run in duplicate. […] IC50 values were determined by measuring residual activities at 7 different compound concentrations and calculated using GraphPad Prism (GraphPad Software, San Diego, CA, USA).

MurA = MurA (Escherichia coli, UniProt P0A749); test: MurA covalent labelling, intact MS; format: binding, E. coli; settings: 5 mM fragment, 37 °C, 60 min (Figure S1)
Procedure: The covalent labelling procedure was conducted as described earlier with slight modifications. First, 42 μM stock solution of MurA in 20 mM HEPES at pH 7.2–7.4 with 1 mM DTT (dithiothreitol, Sigma) was filtered through a G25 desalting column, and the medium was changed to 50 mM Tris with 0.005% Triton X-100 at pH 8.0. For the activation of the enzyme, 1 mg UNAG was added as a solid to reach 40 mM concentration, and the mixture was incubated at 37 °C for 30 min. Fragments were added from a 100 mM DMSO stock diluted in the labelling solution to 5 mM. The incubation was continued at 37 °C for an additional 60 min. After the labelling, the mixture was purified on a G25 desalting column.
The molecular weights of the conjugates were identified using a Triple-TOF 5600+ hybrid Q-TOF LC/MS/MS system (Sciex, Singapore, Woodlands) equipped with a Duo Spray Ion Source coupled with a Shimadzu Prominence LC20 UFLC (Shimadzu, Kyoto, Japan) system consisting of a binary pump, an autosampler, and a thermostated column compartment. Data acquisition and processing were performed using Analyst TF software version 1.7.1 (AB Sciex Instruments, Redwood City, CA, USA). Chromatographic separation was achieved on a Thermo BetaBasic C8 (50 mm × 2.1 mm, 3 μm, 150 Å) HPLC column. […]

[2] = NMR-based single-point GSH reactivity assay; format: physicochemical; settings: pH 7.4, 1H NMR
Procedure: For the NMR assay, a 500 mM D2O stock solution was first prepared for each fragment along with an 800 mM D2O stock solution of GSH. Thereafter, a 5 mM electrophilic standard solution was prepared by adding 20 μL of stock solution to a 2 mL 100 mM potassium hydrogen phosphate/sodium hydrogen phosphate buffer solution (pH 7.4). A total of 0.5 mL of this electrophilic standard solution was placed in an NMR tube, and then the ^1H NMR was recorded. The peak values obtained during the measurement were considered the zero-point measurement or reference peaks of the reactivity study. For the reactivity measurement, 20 μL of the fragment stock solution was added to 1980 μL phosphate buffer solution (pH 7.4) along with 20 μL of GSH stock solution (final concentration = […] GSH and 5 mM fragment). The contents were vortexed until homogenization and were transferred to an NMR tube. The resulting mixture was analyzed by ^1H NMR measurements after 15 and 30 min, and 4 and 24 h. The AUC (area under the curve) values were determined via integration of the corresponding peaks in the NMR spectra.

[3] = molecular target: T1, E. coli MurA (UDP-N-acetylglucosamine 1-carboxyvinyltransferase, EC:2.5.1.7); settings: read-out: MurA IC50 (µM) Non-Methylated; first-generation non-methylated heterocycles; cited from earlier work
[4] = Table 1, methylated heterocycles, read-out: MurA IC50 (µM) Methylated

T1 sequence (P0A749 whole entry): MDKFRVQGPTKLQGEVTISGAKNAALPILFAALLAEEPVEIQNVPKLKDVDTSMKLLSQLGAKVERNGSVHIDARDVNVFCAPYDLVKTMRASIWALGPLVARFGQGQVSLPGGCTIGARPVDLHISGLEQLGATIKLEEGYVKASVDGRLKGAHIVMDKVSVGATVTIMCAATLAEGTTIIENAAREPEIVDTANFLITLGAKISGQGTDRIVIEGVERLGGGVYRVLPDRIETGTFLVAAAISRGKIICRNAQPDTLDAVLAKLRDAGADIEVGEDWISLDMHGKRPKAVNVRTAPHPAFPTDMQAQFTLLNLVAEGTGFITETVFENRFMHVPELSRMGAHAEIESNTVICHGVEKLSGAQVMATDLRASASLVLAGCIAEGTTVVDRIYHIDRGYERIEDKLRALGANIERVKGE
MurA, sequence (P0A749 whole entry, the tested form may be a part): as the sequence (P0A749 whole entry) above

C[n+]1ccccc1Cl [A1+] showed an IC50 [1] of 51.6 µM.

Work on C[n+]1ccccc1I [A3+] yielded an IC50 [1] of 15.5 µM.

In the case of C#Cc1cccc[n+]1C [A6+], the IC50 [1] is reported as 50 µM.

In the case of C[n+]1ccc(I)cc1 [C3+], the “IC50 [μM] MurA” value [1] is reported as “single-digit micromolar”, the IC50 [1, 4] is reported as 4.5 µM and the “covalent labelling of MurA by intact MS” value (MurA) is reported as “single and double labelling on MurA”.

Work on C#Cc1cc[n+](C)cc1 [C6+] yielded an IC50 [1, 4] of 64.7 µM.

Work on C[n+]1cccnc1Cl [D1+] yielded a remaining activity at 100 µM [1] of 99.1%.

For C[n+]1cccnc1Br [D2+], the remaining activity at 100 µM [1] was 98.2%.

For C[n+]1cccnc1I [D3+], the “IC50 [μM] MurA” value [1] was “single-digit micromolar”, the IC50 [1, 4] was 2.99 µM and the “fold increase in MurA inhibitory potency of methylated versus non-methylated pair” value ([1]; from IC50 values of Table 1) was 100 fold.

In the case of C#Cc1nccc[n+]1C [D6+], the remaining activity at 100 µM [1] is reported as 6.7% and the “Single point GSH reactivity (% conversion in 15 min, 16 equiv. GSH)” value [2] is reported as 100%.

Work on C#Cc1cnc[n+](C)c1 [F6+] yielded a remaining activity at 100 µM [1] of 77.8%.

With Cn1cc[n+](C)c1I [H3+] the remaining activity at 100 µM [1] was 10.4%, the IC50 [1, 4] was 10.2 µM and the “Single point GSH reactivity (% conversion in 15 min, 16 equiv. GSH)” value [2] was 100%.

In the case of C[n+]1ccoc1I [N3+], the remaining activity at 100 µM [1] is reported as 1.2% and the “Single point GSH reactivity (% conversion in 15 min, 16 equiv. GSH)” value [2] is reported as 100%.

C[n+]1ccsc1Br [R2+] gave a remaining activity at 100 µM [1] of 42.8%.

In the case of C[C@@H]1O[C@@H]1P(=O)(O)O [fosfomycin], the IC50 [3] is listed as 0.25 ± 0.01 µM.
